US20260317320A1, “C5AR1 ANTAGONISTS AND USES THEREOF” (Vanqua Bio, Inc., priority 2022, published 2026)
Read-outs that look alike come from different tables or passages of the source.

What was measured:
[1] = molecular target: T1, complement C5a receptor 1 (C5aR1) (Homo sapiens, UniProt P21730); test: β-arrestin recruitment via C5aR1 activation in live CHO-K1 cells (PathHunter), antagonist mode; assay type: cell-based; settings: antagonist mode; recombinant hC5a (EC90) as competing natural agonist; live CHO-K1 cells; read-out: [Antagonist] B-arrestin2 recruitment: Average IC50
T1 construct: β-galactosidase fragment (PathHunter enzyme complementation); host or cells: CHO-K1 (PathHunter CHO-K1 C5aR1 β-arrestin cell line)
T1 sequence (P21730 1-350): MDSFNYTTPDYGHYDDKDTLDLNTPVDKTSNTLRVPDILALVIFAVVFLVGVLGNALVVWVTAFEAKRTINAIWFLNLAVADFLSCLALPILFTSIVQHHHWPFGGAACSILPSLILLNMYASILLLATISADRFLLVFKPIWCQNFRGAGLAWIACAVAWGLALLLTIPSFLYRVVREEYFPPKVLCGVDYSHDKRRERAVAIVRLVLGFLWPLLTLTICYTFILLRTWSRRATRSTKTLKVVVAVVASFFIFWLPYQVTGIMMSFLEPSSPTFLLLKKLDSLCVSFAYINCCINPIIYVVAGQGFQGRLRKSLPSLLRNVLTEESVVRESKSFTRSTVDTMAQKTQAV
In short: (§1)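 Live CHO-K1 cells carry two galactosidase enzyme fragments, one fused to β-arrestin and one to C5aR1, so that β-arrestin recruitment restores enzyme activity. Agonist mode tests compounds alone. Antagonist mode tests them against recombinant hC5a at EC90, and IC50 values are reported in binned ranges.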

[2] = molecular target: T1, complement C5a receptor 1 (C5aR1); test: β-arrestin recruitment via C5aR1 activation in live CHO-K1 cells (PathHunter), agonist mode; assay type: cell-based
In short: as §1

Structure (SMILES)	IC50 [1] [nM]	[Agonist] B-arrestin2 recruitment: Average EC50 (nM) ([2]; at 10 μM)	[Agonist] B-arrestin2 recruitment: Average EC50 (nM) [2]
Cc1cnc2cc(C3CCN(c4c(C)cccc4F)CC3)c(=O)n(Cc3nccnc3OC(F)F)c2n1 [compound 167, 5-((3-(Difluoromethoxy)pyrazin-2-yl)methyl)-7-(1-(2-fluoro-6-methylphenyl)piperidin-4-yl)-3-methylpyrido[2,3-b]pyrazin-6(5H)-one]	< 500	Non-Active at 10 μM	–
CCOc1nccnc1Cn1c(=O)c([C@H]2CC[C@H](c3c(C)cccc3F)CC2)cc2ncc(C)nc21 [compound 169, 5-((3-Ethoxypyrazin-2-yl)methyl)-7-((1r,4r)-4-(2-fluoro-6-methylphenyl)cyclohexyl)-3-methylpyrido[2,3-b]pyrazin-6(5H)-one]	< 500	Non-Active at 10 μM	–
FC(F)(F)c1cccnc1CN1CC(C2CCN(c3ncccc3Cl)CC2)=Cc2nccnc21 [compound 170, 7-(1-(3-Chloropyridin-2-yl)piperidin-4-yl)-5-((3-(trifluoromethyl)pyridin-2-yl)methyl)-5,6-dihydropyrido[2,3-b]pyrazine]	< 500	Non-Active at 10 μM	–
COc1nccnc1Cn1c(=O)c([C@H]2CC[C@H](c3c(C)cccc3F)CC2)cc2ncc(C)nc21 [compound 173, 7-((1r,4r)-4-(2-Fluoro-6-methylphenyl)cyclohexyl)-5-((3-methoxypyrazin-2-yl)methyl)-3-methylpyrido[2,3-b]pyrazin-6(5H)-one]	< 500	Non-Active at 10 μM	–
Cc1cnc2cc([C@H]3CC[C@H](c4c(C)cccc4F)CC3)c(=O)n(Cc3ncccc3C(F)F)c2n1 [compound 176, 5-((3-(Difluoromethyl)pyridin-2-yl)methyl)-7-((1r,4r)-4-(2-fluoro-6-methylphenyl)cyclohexyl)-3-methylpyrido[2,3-b]pyrazin-6(5H)-one]	< 500	–	Non-Active
Cc1cnc2cc([C@H]3CC[C@H](c4c(C)cccc4F)CC3)c(=O)n(Cc3ncccc3C(C)(F)F)c2n1 [compound 177, 5-((3-(1,1-Difluoroethyl)pyridin-2-yl)methyl)-7-((1r,4r)-4-(2-fluoro-6-methylphenyl)cyclohexyl)-3-methylpyrido[2,3-b]pyrazin-6(5H)-one]	< 500	–	Non-Active
Cc1cnc2cc(C3CCN(c4ccc5c(cnn5C)c4)CC3)c(=O)n(Cc3ncccc3C(F)(F)F)c2n1 [compound 181, 3-Methyl-7-(1-(1-methyl-1H-indazol-5-yl)piperidin-4-yl)-5-((3-(trifluoromethyl)pyridin-2-yl)methyl)pyrido[2,3-b]pyrazin-6(5H)-one]	5000 to 100000	Non-Active at 10 μM	–
Cc1cnc2c(cc([C@H]3CC[C@H](c4c(C)cccc4F)CC3)c(=O)n2Cc2ncccc2C(F)(F)F)n1 [compound 182, 7-((1r,4r)-4-(2-Fluoro-6-methylphenyl)cyclohexyl)-2-methyl-5-((3-(trifluoromethyl)pyridin-2-yl)methyl)pyrido[2,3-b]pyrazin-6(5H)-one]	< 500	Non-Active at 10 μM	–
Cc1ccc2cc([C@H]3CC[C@H](c4c(C)cccc4F)CC3)c(=O)n(Cc3ncccc3C(F)(F)F)c2n1 [compound 183, 3-((1r,4r)-4-(2-Fluoro-6-methylphenyl)cyclohexyl)-7-methyl-1-((3-(trifluoromethyl)pyridin-2-yl)methyl)-1,8-naphthyridin-2(1H)-one]	< 500	Non-Active at 10 μM	–
Cc1cnc2cc(C3CCN(c4c(F)ccc5c4cnn5C)CC3)c(=O)n(Cc3ncccc3C(F)(F)F)c2n1 [compound 184, 7-(1-(5-Fluoro-1-methyl-1H-indazol-4-yl)piperidin-4-yl)-3-methyl-5-((3-(trifluoromethyl)pyridin-2-yl)methyl)pyrido[2,3-b]pyrazin-6(5H)-one]	500 to 5000	Non-Active at 10 μM	–
Cc1cnc2cc(C3CCN(c4c(C)ccc5c4cnn5C)CC3)c(=O)n(Cc3ncccc3C(F)(F)F)c2n1 [compound 185, 7-(1-(1,5-Dimethyl-1H-indazol-4-yl)piperidin-4-yl)-3-methyl-5-((3-(trifluoromethyl)pyridin-2-yl)methyl)pyrido[2,3-b]pyrazin-6(5H)-one]	500 to 5000	Non-Active at 10 μM	–
Cc1cnc2cc(C3CCN(c4nn(C)c5ccccc45)CC3)c(=O)n(Cc3ncccc3C(F)(F)F)c2n1 [compound 186, 3-Methyl-7-(1-(1-methyl-1H-indazol-3-yl)piperidin-4-yl)-5-((3-(trifluoromethyl)pyridin-2-yl)methyl)pyrido[2,3-b]pyrazin-6(5H)-one]	5000 to 100000	Non-Active at 10 μM	–

Now from value to compound:

IC50 [1] [nM]	[Agonist] B-arrestin2 recruitment: Average EC50 (nM) ([2]; at 10 μM)	[Agonist] B-arrestin2 recruitment: Average EC50 (nM) [2]	Structure (SMILES)
< 500	–	Non-Active	Cc1cnc2cc([C@H]3CC[C@H](c4cnccc4C(F)F)CC3)c(=O)n(Cc3ncccc3C(F)(F)F)c2n1 [compound 178, 7-((1r,4r)-4-(4-(Difluoromethyl)pyridin-3-yl)cyclohexyl)-3-methyl-5-((3-(trifluoromethyl)pyridin-2-yl)methyl)pyrido[2,3-b]pyrazin-6(5H)-one]
< 500	Non-Active at 10 μM	–	Cc1cnc2cc([C@H]3CC[C@H](c4ncccc4C(F)F)CC3)c(=O)n(Cc3ncccc3C(F)(F)F)c2n1 [compound 179, 7-((1r,4r)-4-(3-(Difluoromethyl)pyridin-2-yl)cyclohexyl)-3-methyl-5-((3-(trifluoromethyl)pyridin-2-yl)methyl)pyrido[2,3-b]pyrazin-6(5H)-one]
< 500	Non-Active at 10 μM	–	Cc1cnc2cc([C@H]3CC[C@H](c4ncccc4C(F)(F)F)CC3)c(=O)n(Cc3ncccc3C(F)(F)F)c2n1 [compound 180, 3-Methyl-7-((1r,4r)-4-(3-(trifluoromethyl)pyridin-2-yl)cyclohexyl)-5-((3-(trifluoromethyl)pyridin-2-yl)methyl)pyrido[2,3-b]pyrazin-6(5H)-one]
< 500	Non-Active at 10 μM	–	Cc1cnc2cc([C@H]3CC[C@H](c4cnccc4C(C)(F)F)CC3)c(=O)n(Cc3ncccc3C(F)(F)F)c2n1 [compound 188, 7-((1r,4r)-4-(4-(1,1-Difluoroethyl)pyridin-3-yl)cyclohexyl)-3-methyl-5-((3-(trifluoromethyl)pyridin-2-yl)methyl)pyrido[2,3-b]pyrazin-6(5H)-one]
< 500	Non-Active at 10 μM	–	COc1ccnc(F)c1[C@H]1CC[C@H](c2cc3ncc(C)nc3n(Cc3ncccc3C(F)(F)F)c2=O)CC1 [compound 189, 7-((1r,4r)-4-(2-Fluoro-4-methoxypyridin-3-yl)cyclohexyl)-3-methyl-5-((3-(trifluoromethyl)pyridin-2-yl)methyl)pyrido[2,3-b]pyrazin-6(5H)-one]
500 to 5000	Non-Active at 10 μM	–	Cc1cnc2cc([C@H]3CC[C@H](c4c(C)nn(C)c4C)CC3)c(=O)n(Cc3ncccc3C(F)(F)F)c2n1 [compound 190, 3-Methyl-5-((3-(trifluoromethyl)pyridin-2-yl)methyl)-7-((1r,4r)-4-(1,3,5-trimethyl-1H-pyrazol-4-yl)cyclohexyl)pyrido[2,3-b]pyrazin-6(5H)-one]
